{"source": "paper PMC1997131", "about": "“Enzymes involved in DNA ligation and end-healing in the radioresistant bacterium Deinococcus radiodurans” (BMC Molecular Biology, 2007)", "target": "T1, LigA (Deinococcus radiodurans, UniProt Q9RSQ5)", "T1 construct": "full-length, N-terminal hexahistidine tag (pRSETb, kept), E. coli BL21(DE3)", "assay": "adenylyltransferase assay, SDS-PAGE autoradiography", "format": "biochemical", "conditions": "0.1 μM [32P]-NAD+, 1 mM MnCl2, pH 6.8, 30 °C; covalent AMP adduct; labelled compound", "data": [{"smiles": "NC(=O)c1ccc[n+]([C@@H]2O[C@H](COP(=O)(O)OP(=O)(O)OC[C@H]3O[C@@H](n4cnc5c(N)ncnc54)[C@H](O)[C@@H]3O)[C@@H](O)[C@H]2O)c1", "note": "[NAD^+]", "values": [{"measurement": "adenylyltransferase assay, SDS-PAGE autoradiography", "value": "in an adenylyltransferase activity assay LigA wt formed an AMP-ligase complex"}]}]}
